Results reported in patent US6737383B1, “Herbicidal oxadiazolidines” (priority 1999, dated 2004).

Legend:
bedstraw = test: Test B pre/postemergence bedstraw; assay type: in vivo, Galium aparine; settings: Postemergence
In short: (§1)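 Response is a visual 0-to-10 score relative to untreated plants, where 0 means no effect and 10 means complete control, taken twelve to sixteen days after application. Treatments went onto soil at planting and onto foliage of 1- to 4-leaf plants, using a surfactant-containing non-phytotoxic solvent.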

blackgrass = test: Test B pre/postemergence blackgrass; assay type: in vivo, Alopecurus myosuroides
In short: as §1

surinam grass = test: Test B pre/postemergence surinam grass; assay type: in vivo, Brachiaria decumbens
In short: as §1

cocklebur = test: Test B pre/postemergence cocklebur; assay type: in vivo, Xanthium strumarium
In short: as §1

corn = test: Test B pre/postemergence corn; assay type: in vivo, Zea mays
In short: as §1

morningglory = test: Test B pre/postemergence morningglory; assay type: in vivo, Ipomoea hederacea
In short: as §1

pigweed = test: Test B pre/postemergence pigweed; assay type: in vivo, Amaranthus retroflexus
In short: as §1

rape = test: Test B pre/postemergence rape; assay type: in vivo, Brassica napus
In short: as §1

velvetleaf = test: Test B pre/postemergence velvetleaf; assay type: in vivo, Abutilon theophrasti
In short: as §1

wheat = test: Test B pre/postemergence wheat; assay type: in vivo, Triticum aestivum
In short: as §1

wild oat = test: Test B pre/postemergence wild oat; assay type: in vivo, Avena fatua
In short: as §1

purple nutsedge = test: Test B pre/postemergence purple nutsedge; assay type: in vivo, Cyperus rotundus
In short: as §1

rice = test: Test B flood test rice; assay type: in vivo, Oryza sativa
In short: (§2)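 Plants were grown to the 2-leaf stage before treatment with test chemical, then held in a greenhouse for twelve to sixteen days. Injury was visually rated against untreated controls on a 0–10 scale, where 0 is no effect and 10 is complete control.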

smallflower flatsedge = test: Test B flood test smallflower flatsedge; assay type: in vivo, Cyperus difformis
In short: as §2

duck salad = test: Test B flood test duck salad; assay type: in vivo, Heteranthera limosa
In short: as §2

bamyardgrass = test: Test B flood test barnyardgrass; assay type: in vivo, Echinochloa crus-galli
In short: as §2

[1] = Postemergence, Rate 250 g/ha, scale 0 to 10
[2] = Postemergence, Rate 500 g/ha, scale of 0 to 10 where 0 is no effect and 10 is complete control
[3] = Preemergence, Rate 62 g/ha, scale 0 to 10 (0 no effect, 10 complete control)
[4] = Preemergence, Rate 125 g/ha, scale of 0 to 10 where 0 is no effect and 10 is complete control
[5] = Preemergence, Rate 250 g/ha, scale 0 to 10, 0 is no effect, 10 is complete control
[6] = Preemergence, Rate 500 g/ha, scale 0 to 10, 0 is no effect, 10 is complete control
[7] = Rate 62 g/ha, Postemergence, scale 0 to 10 (0 no effect, 10 complete control)
[8] = Rate 125 g/ha, Postemergence, scale 0 to 10, 0 is no effect, 10 is complete control
[9] = Postemergence block (flood test species), Rate 250 g/ha, scale 0 to 10
[10] = Postemergence section (flood test species), Rate 500 g/ha, scale of 0 to 10 where 0 is no effect and 10 is complete control
[11] = Rate 62 g/ha, Postemergence (flood test), scale 0 to 10, 0 no effect, 10 complete control
[12] = Rate 125 g/ha, Postemergence section (flood test species), scale 0 to 10, 0 is no effect, 10 is complete control

CC(C)N(C(=O)n1oc(=O)n(C(C)C#N)c1=O)c1ccccc1 (stereo not drawn) [Compound 435]
Bedstraw plant response rating (bedstraw; Rate 250 g/ha, scale 0 to 10): 0 | Bedstraw plant response rating (bedstraw; Rate 500 g/ha, scale of 0 to 10 where 0 is no effect and 10 is complete control): 0 | Bedstraw plant response rating (bedstraw; Rate 62 g/ha, scale 0 to 10 (0 no effect, 10 complete control)): 0 | Bedstraw plant response rating (bedstraw; Rate 125 g/ha, scale 0 to 10, 0 is no effect, 10 is complete control): 0 | Blackgrass plant response rating (blackgrass; [1]): 6 | Blackgrass plant response rating (blackgrass; [2]): 8 | Plant response rating, Blackgrass (blackgrass; [3]): 0 | Plant response rating, Blackgrass (blackgrass; [4]): 0 | Blackgrass plant response rating (blackgrass; [5]): 0 | Blackgrass plant response rating (blackgrass; [6]): 2 | Blackgrass plant response rating (blackgrass; [7]): 0 | Blackgrass plant response rating (blackgrass; [8]): 0 | B. signalgrass plant response rating (surinam grass; Postemergence, Rate 250 g/ha, scale 0 to 10, 0 no effect, 10 complete control): 1 | B. signalgrass plant response rating (surinam grass; [2]): 3 | Plant response rating, B. signalgrass (surinam grass; [3]): 0 | Plant response rating, B. signalgrass (surinam grass; [4]): 0 | B. signalgrass plant response rating (surinam grass; [5]): 0 | B. signalgrass plant response rating (surinam grass; [6]): 1 | B. signalgrass plant response rating (surinam grass; [7]): 0 | B. signalgrass plant response rating (surinam grass; [8]): 0 | Cocklebur plant response rating (cocklebur; [1]): 0 | Cocklebur plant response rating (cocklebur; [2]): 0 | Plant response rating, Cocklebur (cocklebur; [3]): 0 | Plant response rating, Cocklebur (cocklebur; [4]): 0 | Cocklebur plant response rating (cocklebur; [5]): 0 | Cocklebur plant response rating (cocklebur; [6]): 0 | Cocklebur plant response rating (cocklebur; [7]): 0 | Cocklebur plant response rating (cocklebur; [8]): 0 | Corn plant response rating (corn; [1]): 0 | Corn plant response rating (corn; [2]): 0 | Plant response rating, Corn (corn; [3]): 0 | Plant response rating, Corn (corn; [4]): 0 | Corn plant response rating (corn; [5]): 0 | Corn plant response rating (corn; [6]): 0 | Corn plant response rating (corn; [7]): 0 | Corn plant response rating (corn; [8]): 0 | Morningglory plant response rating (morningglory; [1]): 6 | Morningglory plant response rating (morningglory; [2]): 9 | Plant response rating, Morningglory (morningglory; [3]): 0 | Plant response rating, Morningglory (morningglory; [4]): 0 | Morningglory plant response rating (morningglory; [5]): 0 | Morningglory plant response rating (morningglory; [6]): 0 | Morningglory plant response rating (morningglory; [7]): 1 | Morningglory plant response rating (morningglory; [8]): 2 | Redroot pigweed plant response rating (pigweed; [1]): 2 | Redroot pigweed plant response rating (pigweed; [2]): 2 | Plant response rating, Redroot pigweed (pigweed; [3]): 2 | Plant response rating, Redroot pigweed (pigweed; [4]): 2 | Redroot pigweed plant response rating (pigweed; [5]): 4 | Redroot pigweed plant response rating (pigweed; [6]): 8 | Redroot pigweed plant response rating (pigweed; [7]): 0 | Redroot pigweed plant response rating (pigweed; [8]): 0 | Rape plant response rating (rape; [1]): 0 | Rape plant response rating (rape; [2]): 0 | Plant response rating, Rape (rape; [3]): 0 | Plant response rating, Rape (rape; [4]): 0 | Rape plant response rating (rape; [5]): 0 | Rape plant response rating (rape; [6]): 0 | Rape plant response rating (rape; [7]): 0 | Rape plant response rating (rape; [8]): 0 | Velvetleaf plant response rating (velvetleaf; [1]): 0 | Velvetleaf plant response rating (velvetleaf; [2]): 0 | Plant response rating, Velvetleaf (velvetleaf; [3]): 0 | Plant response rating, Velvetleaf (velvetleaf; [4]): 0 | Velvetleaf plant response rating (velvetleaf; [5]): 1 | Velvetleaf plant response rating (velvetleaf; [6]): 2 | Velvetleaf plant response rating (velvetleaf; [7]): 0 | Velvetleaf plant response rating (velvetleaf; [8]): 0 | Wheat plant response rating (wheat; [1]): 0 | Wheat plant response rating (wheat; [2]): 0 | Plant response rating, Wheat (wheat; [3]): 0 | Plant response rating, Wheat (wheat; [4]): 0 | Wheat plant response rating (wheat; [5]): 0 | Wheat plant response rating (wheat; [6]): 0 | Wheat plant response rating (wheat; [7]): 0 | Wheat plant response rating (wheat; [8]): 0 | Wild oats plant response rating (wild oat; [1]): 0 | Wild oats plant response rating (wild oat; [2]): 3 | Plant response rating, Wild oats (wild oat; [3]): 0 | Plant response rating, Wild oats (wild oat; [4]): 0 | Wild oats plant response rating (wild oat; [5]): 2 | Wild oats plant response rating (wild oat; [6]): 3 | Wild oats plant response rating (wild oat; [7]): 0 | Wild oats plant response rating (wild oat; [8]): 0 | Nutsedge plant response rating (purple nutsedge; [1]): 0 | Nutsedge plant response rating (purple nutsedge; [2]): 3 | Plant response rating, Nutsedge (purple nutsedge; [3]): 0 | Plant response rating, Nutsedge (purple nutsedge; [4]): 0 | Nutsedge plant response rating (purple nutsedge; [5]): 0 | Nutsedge plant response rating (purple nutsedge; [6]): 0 | Nutsedge plant response rating (purple nutsedge; [7]): 0 | Nutsedge plant response rating (purple nutsedge; [8]): 0 | Rice plant response rating (rice; [9]): 0 | Rice plant response rating (rice; [10]): 0 | Rice plant response rating (rice; [11]): 0 | Rice plant response rating (rice; [12]): 0 | S. Flatsedge plant response rating (smallflower flatsedge; [9]): 0 | S. Flatsedge plant response rating (smallflower flatsedge; [10]): 0 | S. Flatsedge plant response rating (smallflower flatsedge; [11]): 0 | S. Flatsedge plant response rating (smallflower flatsedge; [12]): 0 | Ducksalad plant response rating (duck salad; [9]): 0 | Ducksalad plant response rating (duck salad; [10]): 0 | Ducksalad plant response rating (duck salad; [11]): 0 | Ducksalad plant response rating (duck salad; [12]): 0 | Barnyardgrass plant response rating (bamyardgrass; [9]): 0 | Barnyardgrass plant response rating (bamyardgrass; [10]): 0 | Barnyardgrass plant response rating (bamyardgrass; [11]): 0 | Barnyardgrass plant response rating (bamyardgrass; [12]): 0
